Experiments:
[1] = Octanol/water partition coefficient (log P), HPLC; details: octanol/purified water, log10(concentration in octanol layer/concentration in aqueous layer)
Protocol: (§1) Then, 10 mL of octanol was added to each aqueous solution and shaken for 1 minute. 2 mL each was taken from the aqueous layer and the octanol layer, centrifuged, and allowed to stand for 1 hour. 1 mL was precisely measured from the standing solution, 2-propanol was added, and the volume was made up to 10 mL. […] (log P=log10 (concentration in octanol layer/concentration in aqueous layer))

[2] = disclosed in Patent Literature 2 (WO2022/045052); cited from earlier work

Protocol for physchem: as §1

logP (physchem)	Structure (SMILES)	Partition coefficient (logP) [1]	hydrogen sulfide elimination effect [2]
0.91	CC(=O)OCC(C)(C)[C@@H](O)C(=O)NCCC(=O)NCCSSSCCNC(=O)CCNC(=O)[C@H](O)C(C)(C)COC(C)=O [Ac-PTN-SSS, acetyl derivative of pantethine trisulfide]	–	–
–	CC(C)(CO)[C@@H](O)C(=O)NCCC(=O)NCCSSSCCNC(=O)CCNC(=O)[C@H](O)C(C)(C)CO [PTN-SSS, Pantethine trisulfide]	−0.39	has a hydrogen sulfide elimination effect
1.56	CC1(C)OCC(C)(C)[C@H](C(=O)NCCC(=O)NCCSSSCCNC(=O)CCNC(=O)[C@@H]2OC(C)(C)OCC2(C)C)O1 [Acetonide-PTN-SSS, acetonide derivative of pantethine trisulfide]	–	–
